# Data: article PMC7215599, “Synthesis, Antitumor Evaluation, Molecular Modeling and Quantitative Structure–Activity Relationship (QSAR) of Novel 2-[(4-Amino-6-N-substituted-1,3,5-triazin-2-yl)methylthio]-4-chloro-5-methyl-N-(1H-benzo[d]imidazol-2(3H)-ylidene)Benzenesulfonamides” (International Journal of Molecular Sciences, 2020)
# Legend:
# [1] = system: HCT-116 (colon cancer) cell line; assay: MTT cell viability assay, HCT-116; assay type: cell-based, human; details: MTT, 72 h, 1-100 µM, mean ± SD
# Experimental: (§1) Compounds 6–49 were evaluated in vitro for their effects on the viability of the three human cancer cell lines: HCT-116 (colon cancer), MCF-7 (breast cancer) and HeLa (cervical cancer) as well as the non-cancerous keratinocyte cell line (HaCaT). The concentration required for 50% inhibition of cell viability IC50 was calculated and compared with the reference drug cisplatin, the results are shown in Table 1.
# (§2) Cell lines: colon cancer (HCT-116), breast cancer (MCF-7), cervical cancer (HeLa), the human keratinocyte cell line (HaCaT); NT—not tested; IC50 was measured at concentrations 1, 10, 25, 50, and 100 µM. IC50 values are expressed as the mean ± SD of at last three independent experiments.
# (§3) All chemicals, if not stated otherwise, were obtained from Sigma–Aldrich (St. Louis, MO, USA). The HCT-116 cell lines was purchased from ATCC (ATCC-No: CCL-247), while the MCF-7, HeLa and HaCaT cell lines were purchased from Cell Lines Services (Eppelheim, Germany). Cells were cultured in Dulbecco’s modified Eagle’s medium (DMEM) supplemented with 10% fetal bovine serum, 2 mM glutamine, 100 units/mL penicillin, and 100 µg/mL streptomycin. Cultures were maintained in a humidified atmosphere with 5% carbon dioxide at 37 °C in an incubator (Heraceus, HeraCell).
# (§4) Cell viability was examined using the MTT (3-(4,5-dimethylthiazol-2-yl)-2,5-diphenyltetrazolium bromide) assay. Cells were seeded in 96-well plates at a density of 5 × 10^3 cells/well and treated for 72 h with the tested compounds in the concentration range of 1–100 µM (1, 10, 25, 50 and 100 µM). Then, MTT (0.5 mg/mL) was added to the medium and cells were further incubated for 2 h at 37 °C. In the next stage, cells were lysed with DMSO and the absorbance of the formazan solution was measured at 550 nm with a plate reader (1420 multilabel counter, Victor, Jügesheim, Germany). The experiment was performed in triplicate. Values are expressed as the mean ± SD of at least three independent experiments. Cisplatin was used as a positive control.
# [2] = system: MCF-7 (breast cancer) cell line; assay: MTT cell viability assay, MCF-7; assay type: cell-based, human; details: MTT, 72 h, 1-100 µM, mean ± SD
# Experimental: as §1, §2, §3, §4
# [3] = system: HeLa (cervical cancer) cell line; assay: MTT cell viability assay, HeLa; assay type: cell-based, human; details: 72 h, MTT, 1-100 µM, mean ± SD
# Experimental: as §1, §2, §3, §4
# [4] = system: HaCaT (non-cancerous keratinocyte cell line); assay: MTT cell viability assay, HaCaT; assay type: cell-based; details: Homo sapiens, 72 h, 1-100 µM, mean ± SD, non-cancerous cells
# Experimental: as §1, §2, §3, §4
Compound,"IC50 ([1]; Homo sapiens, HCT-116, 72 h) [µM]","IC50 ([2]; Homo sapiens, MCF7, 72 h) [µM]","IC50 ([3]; Homo sapiens, HeLa) [µM]",IC50 [2] [µM],IC50 [3] [µM],IC50 [4] [µM],IC50 [1] [µM]
"Cc1cc(S(=O)(=O)N=c2[nH]c3ccccc3[nH]2)c(SCc2nc(N)nc(N(C)C)n2)cc1Cl [Compound 6, 2-{[4-Amino-6-(dimethylamino)-1,3,5-triazin-2-yl]methylthio}-N-(1H-benzo[d]imidazol-2(3H)-ylidene)-4-chloro-5-methylbenzenesulfonamide]",49 ± 1,52 ± 1,50 ± 2,–,–,57 ± 3,–
"Cc1cc(S(=O)(=O)N=c2[nH]c3ccccc3[nH]2)c(SCc2nc(N)nc(N3CCOCC3)n2)cc1Cl [Compound 7, 2-[(4-Amino-6-morpholino-1,3,5-triazin-2-yl)methylthio]-N-(1H-benzo[d]imidazol-2(3H)-ylidene)-4-chloro-5-methylbenzenesulfonamide]",75 ± 3,> 100,> 100,99 ± 3,86 ± 3,102 ± 4,–
"CC1=NN(c2nc(N)nc(CSc3cc(Cl)c(C)cc3S(=O)(=O)N=c3[nH]c4ccccc4[nH]3)n2)C(C)(C)C1 [Compound 8, 2-{[4-Amino-6-(3,5,5-trimethyl-4,5-dihydro-1H-pyrazol-1-yl)-1,3,5-triazin-2-yl]metylthio}-N-(1H-benzo[d]imidazol-2(3H)-ylidene)-4-chloro-5-methylbenzenesulfonamide]",23 ± 1,34 ± 2,31 ± 2,–,–,43 ± 2,–
"Cc1cc(S(=O)(=O)N=c2[nH]c3ccccc3[nH]2)c(SCc2nc(N)nc(N3CCCc4ccccc43)n2)cc1Cl [Compound 10, 2-{[4-Amino-6-(3,4-dihydroquinolin-1(2H)-yl)-1,3,5-triazin-2-yl]methylthio}-N-(1H-benzo[d]imidazol-2(3H)-ylidene)-4-chloro-5-methylbenzenesulfonamide]",32 ± 3,25 ± 1,30 ± 1,–,–,45 ± 2,–
"N.N.[Cl][Pt][Cl] [cisplatin, reference compound]",–,–,–,3 ± 0.1,3.8 ± 0.2,–,2.2 ± 0.1

# Continued, in another order:
"IC50 ([1]; Homo sapiens, HCT-116, 72 h) [µM]","IC50 ([2]; Homo sapiens, MCF7, 72 h) [µM]","IC50 ([3]; Homo sapiens, HeLa) [µM]",IC50 [2] [µM],IC50 [3] [µM],Compound,IC50 [4] [µM],IC50 [1] [µM]
37 ± 2,41 ± 1,39 ± 1,–,–,"Cc1cc(S(=O)(=O)N=c2[nH]c3ccccc3[nH]2)c(SCc2nc(N)nc(Nc3ccccc3)n2)cc1Cl [Compound 11, 2-{[4-Amino-6-(phenylamino)-1,3,5-triazin-2-yl]methylthio}-N-(1H-benzo[d]imidazol-2(3H)-ylidene)-4-chloro-5-methylbenzenesulfonamide]",58 ± 2,–
36 ± 1,35 ± 2,36 ± 2,–,–,"Cc1cc(S(=O)(=O)N=c2[nH]c3ccccc3[nH]2)c(SCc2nc(N)nc(Nc3ccc(F)cc3)n2)cc1Cl [Compound 12, 2-[{4-Amino-6-[(4-fluorophenyl)amino]-1,3,5-triazin-2-yl}metylthio]-N-(1H-benzo[d]imidazol-2(3H)-ylidene)-4-chloro-5-methylbenzenesulfonamide]",43 ± 2,–
22 ± 1,27 ± 1,> 100,–,92 ± 2,"Cc1cc(S(=O)(=O)N=c2[nH]c3ccccc3[nH]2)c(SCc2nc(N)nc(NCc3ccccc3)n2)cc1Cl [Compound 15, 2-{[4-Amino-6-(benzylamino)-1,3,5-triazin-2-yl]metylthio}-N-(1H-benzo[d]imidazol-2(3H)-ylidene)-4-chloro-5-methylbenzenesulfonamide]",–,–
> 100,> 100,> 100,134 ± 9,56 ± 2,"Cc1cc(S(=O)(=O)N=c2[nH]c3ccccc3[nH]2)c(SCc2nc(N)nc(N3CCN(c4ccc([N+](=O)[O-])cc4)CC3)n2)cc1Cl [Compound 29, 2-[{4-Amino-6-[4-(4-nitrophenyl)piperazin-1-yl]-1,3,5-triazin-2-yl}metylthio]-N-(1H-benzo[d]imidazol-2(3H)-ylidene)-4-chloro-5-methylbenzenesulfonamide]",–,195 ± 4
